# Measurements published in publication doi:10.1101/2021.10.07.463234v2 (biorxiv, 2021).
# Counter-ions that a name gives are not always drawn. Bridge positions count the residues as written; N and C are the ends. Peptide text beside a SMILES is read from it.
# Molecular target: SARS-CoV-2 Mac1 (Severe acute respiratory syndrome coronavirus 2, UniProt P0DTD1)
# Test: biochemical
# Conditions: for inhibition at 100 µM: read-out: %inhibition; for %inhibition: 100 µM, inhibitor
Structure (SMILES),inhibition at 100 µM [%],%inhibition [%]
CC(=O)OCC(=O)[C@@]12N=C(C)O[C@@H]1C[C@H]1[C@@H]3CCC4=CC(=O)C=C[C@]4(C)[C@H]3[C@@H](O)C[C@@]12C [Deflazacort],37.4,–
CCCc1nc(C(C)(C)O)c(C(=O)OCc2oc(=O)oc2C)n1Cc1ccc(-c2ccccc2-c2nnn[nH]2)cc1 [Olmesartan Medoxomil],0,–
N[C@H](Cc1ccccc1)C(=O)O [D-Phenylalanine],4.94,–
C/C=C(\C)C(=O)O[C@H]1[C@H](OC(C)=O)[C@@]2(CO)C(CC1(C)C)C1=CCC3[C@@]4(C)CCC(O[C@@H]5O[C@H](C(=O)O)[C@@H](O[C@@H]6O[C@H](CO)[C@@H](O)[C@H](O)[C@H]6O)[C@H](O)[C@H]5O[C@@H]5O[C@H](CO)[C@@H](O)[C@H](O)[C@H]5O)[C@](C)(CO)C4CC[C@@]3(C)[C@]1(C)C[C@H]2O (stereo partly drawn) [Escin],6.9,–
CO[C@H]1/C=C/O[C@@]2(C)Oc3c(C)c(O)c4c(O)c(cc(O)c4c3C2=O)NC(=O)/C(C)=C\C=C\[C@H](C)[C@H](O)[C@@H](C)[C@@H](O)[C@@H](C)[C@H](OC(C)=O)[C@@H]1C [Rifamycin sodium salt],10.7,–
NCCCC[C@H](N[C@@H](CCc1ccccc1)C(=O)O)C(=O)N1CCC[C@H]1C(=O)O [Lisinopril],3.22,–
Nc1[nH]cnc2ncnc1-2 [Adenine HCl],9.72,–
C/C(=C\C(=O)OCCCCCCCCC(=O)O)C[C@@H]1OC[C@H](C[C@@H]2O[C@H]2[C@@H](C)[C@H](C)O)[C@@H](O)[C@H]1O [Mupirocin calcium],–,3.887
Nc1nc2[nH]cnc2c(=S)[nH]1 [Thioguanine],18.9,–
CCOC(=O)[C@H](CCc1ccccc1)N[C@H]1CS[C@H](c2cccs2)CN(CC(=O)O)C1=O [Temocapril HCl],0,–
C[C@]12C=CC(=O)C=C1CC[C@H]1[C@@H]3C[C@@H](O)[C@](O)(C(=O)CO)[C@@]3(C)C[C@H](O)[C@@]12F [Triamcinolone],16.5,–
C[C@H]1[C@H](OC(=O)CCC(=O)O)O[C@@H]2O[C@@]3(C)CC[C@H]4[C@H](C)CC[C@@H]1[C@@]24OO3 [Artesunate],0,–
O=C(O)c1cc(/N=N/c2ccc(O)c(C(=O)O)c2)ccc1O [Olsalazine Sodium],11.8,–
Oc1cccc(O)c1 [Resorcinol],0,–
NC(=O)c1cccc2cn(-c3ccc([C@@H]4CCCNC4)cc3)nc12 [Niraparib (MK-4827)],–,4.387
COc1ccccc1O [Guaiacol],0,–
C[Se]CC[C@H](N)C(=O)O [L-SelenoMethionine],0,–
NCCCC[C@H](NC(=O)[C@@H]1CCCN1C(=O)[C@@H]1CSSC[C@H](NC(=O)CNC(=O)CNC(=O)CN)C(=O)N[C@@H](Cc2ccc(O)cc2)C(=O)N[C@@H](Cc2ccccc2)C(=O)N[C@@H](CCC(N)=O)C(=O)N[C@@H](CC(N)=O)C(=O)N1)C(=O)NCC(N)=O [Terlipressin Acetate] (H-GGGCYFQNCPKG-NH2; disulfide 4-9),0,–
CO[C@H]1C(=O)[C@]2(C)[C@@H](OC)C[C@H]3OC[C@@]3(OC(C)=O)[C@H]2[C@H](OC(=O)c2ccccc2)[C@]2(O)C[C@H](OC(=O)[C@H](O)[C@@H](NC(=O)OC(C)(C)C)c3ccccc3)C(C)=C1C2(C)C [Cabazitaxel],25.1,–
O=c1[nH]c(=O)c2ccccc2o1 [Carsalam],0,–
CC[C@H]1OC(=O)C[C@@H](O)[C@H](C)[C@@H](O[C@@H]2O[C@H](C)[C@@H](O)[C@H](N(C)C)[C@H]2O)[C@@H](CCN2C[C@H](C)C[C@H](C)C2)C[C@@H](C)C(=O)/C=C/C(C)=C/[C@@H]1CO[C@@H]1O[C@H](C)[C@@H](O)[C@@H](OC)[C@H]1OC [Tilmicosin],–,23.11
C[C@]1(O)C[C@@H](c2nc(-c3ccc4ccc(-c5ccccc5)nc4c3)c3c(N)nccn32)C1 [Linsitinib (OSI-906)],9.54,–
CCNC(=O)[C@@H]1CCCN1C(=O)[C@H](CCCN=C(N)N)NC(=O)[C@H](CC(C)C)NC(=O)[C@@H](C)NC(=O)[C@H](Cc1ccc(O)cc1)NC(=O)[C@H](CO)NC(=O)[C@H](Cc1c[nH]c2ccccc12)NC(=O)[C@H](Cc1cnc[nH]1)NC(=O)[C@@H]1CCC(=O)N1 [Alarelin Acetate],0.14,–
CO/N=C(\C(=O)N[C@@H]1C(=O)N2C(C(=O)O)=C(CSC(=O)c3ccco3)CS[C@H]12)c1csc(N)n1 [Ceftiofur],–,0

Structure (SMILES),inhibition at 100 µM [%],%inhibition [%]
C=C1/C(=C\C=C2/CCC[C@]3(C)[C@@H]([C@H](C)/C=C/[C@H](C)C(C)C)CC[C@@H]23)C[C@@H](O)C[C@@H]1O [Doxercalciferol],0,–
CC(C)(C)NC(=O)N[C@H](C(=O)N1C[C@H]2[C@@H]([C@H]1C(=O)NC(CC1CCC1)C(=O)C(N)=O)C2(C)C)C(C)(C)C (stereo partly drawn) [Boceprevir],–,2.103
CC(C)(S)[C@@H](N)C(=O)O [Penicillamine],0.561,–
Cc1onc(-c2ccccc2Cl)c1C(=O)N[C@@H]1C(=O)N2[C@@H]1SC(C)(C)[C@@H]2C(=O)O [Cloxacillin Sodium],9.79,–
CC(C)NCC(O)COc1ccc(COCCOC(C)C)cc1 (stereo not drawn) [Bisoprolol fumarate],0,–
Nc1nc(O)c2ncn(CCC(CO)CO)c2n1 [Penciclovir],14.9,–
CCN(CC)CC(=O)Nc1c(C)cccc1C [Lidocaine hydrochloride],–,4.808
CC(C)(C)NCC(O)COc1cccc2c1CCC(=O)N2 (stereo not drawn) [Carteolol HCl],3.36,–
CC(C)NCC(O)COc1ccc(CCOCC2CC2)cc1 (stereo not drawn) [Betaxolol],–,0
Oc1ccc(Cl)c2cccnc12 [Cloxiquine],8.06,–
O=C1O[C@H]([C@@H](O)CO)C(O)=C1O [Vitamin C],–,15.62
N#CC[C@H](C1CCCC1)n1cc(-c2ncnc3[nH]ccc23)cn1 [S-Ruxolitinib (INCB018424)],–,18.93
CCCNCC(O)COc1ccccc1C(=O)CCc1ccccc1 (stereo not drawn) [Propafenone HCl],0,–
CC(=O)NC(CC(C)C)C(=O)O (stereo not drawn) [Acetylleucine],1.78,–
CC1(C)S[C@@H]2[C@H](NC(=O)[C@H](N)c3ccccc3)C(=O)N2[C@H]1C(=O)O [Ampicillin sodium],–,0
CC(C)(C)C(=O)Oc1ccc(S(=O)(=O)Nc2ccccc2C(=O)NCC(=O)O)cc1 [Sivelestat (ONO-5046)],0,–
CCC(C)(C)C(=O)O[C@H]1C[C@@H](C)C=C2C=C[C@H](C)[C@H](CC[C@@H]3C[C@@H](O)CC(=O)O3)[C@H]21 [Simvastatin],14,–
CCN(CCCc1ccccc1)CCCc1ccccc1 [Alverine Citrate],8.25,–
Nc1c(CC(=O)O)cccc1C(=O)c1ccc(Br)cc1 [Bromfenac Sodium],8.6,–
Nc1c(Br)cc(Br)cc1CN[C@H]1CC[C@H](O)CC1 [Ambroxol],–,0
CNC(=O)c1ccc2cc([C@@]3(O)CCn4cncc43)ccc2c1 [TAK-700 (Orteronel)],0,–
COc1cc2c(cc1OC)C(=O)C(CC1CCN(Cc3ccccc3)CC1)C2 (stereo not drawn) [Donepezil HCl],–,0
COc1cc(NS(=O)(=O)c2ccc(N)cc2)nc(OC)n1 [Sulphadimethoxine],0,–
CCCc1cc(=O)[nH]c(=S)[nH]1 [Propylthiouracil],11.2,–
